In PubChem BioAssay AID1963959 (Molecular Pharmacology Branch, DTP, NCI, 2024):

Tested on: T-47D spheroids with HUVEC/MSC, viability
Assay: Anticancer human tumor T-47D cell line growth inhibition [PI3K];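 note: spheroids exposed to agents for seven days before reading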;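 for viability, T/C: percent of DMSO vehicle control luminescence so 100% = untreated growth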
Details: for IC50: curve of first compound; for viability, T/C: stronger effect = lower value
Text: Combinatorial screen of targeted agents with the PI3K inhibitors inavolisib, alpelisib, duvelisib, and copanlisib in multi-cell type tumor spheroids
A high-throughput screen of multi-cell type tumor spheroids was designed to identify active combinations of targeted small molecules and PI3K pathway inhibitors. Complex spheroids include a stromal component modeled by human endothelial cells (HUVEC) and fibroblasts modeled by human mesenchymal stem cells (MSCs). The concentration ranges selected for each drug and investigational agent were based upon clinically achievable concentrations if the clinical Cmax of the agent was known.
Compounds. The drugs and investigational agents: inavolisib (NSC800729), alpelisib (NSC765974), duvelisib (NSC772469), copanlisib (NSC816437), ipatasertib (NSC767898), afuresertib (NSC778305), talazoparib (NSC767125), sapanisertib (NSC764658), selumetinib (NSC741078), tovorafenib (DAY101, NSC766906), vemurafenib (NSC761431), ravoxertinib (NSC781343), sotorasib (NSC818433), MRTX1133 (NSC 836407), abemaciclib (NSC 768073), palbociclib (NSC758247), venetoclax (NSC 766270), SY5609 (NSC837396), enzalutamide (NSC755605), and darolutamide (NSC825331), were obtained from the National Cancer Institute (NCI) Developmental Therapeutics Program Chemical Repository. The FDA-approved anticancer drug set is available from the NCI Developmental Therapeutics Program. […] The stock solutions were prepared in dimethyl sulfoxide (DMSO, Sigma-Aldrich, St. Louis, MO, cat. D2650) at 800-fold the tested concentration and stored at -70 degrees C prior to their use. All drugs and investigational agents were tested over a range starting from a high concentration at or near the clinical Cmax and decreasing in half-log increments. If the clinical Cmax for an agent had not been determined, the highest concentration tested was 10 microM.
Cell Culture. All cells were maintained in an incubator at 37 degrees C and 5% CO2 with 95% humidity. The PDC lines were cultured according to standard operating procedures established by the NCI PDMR (https://pdmr.cancer.gov/sops/default.htm). All PDCs were thawed and cultured in Matrigel-coated flasks prepared with a working solution of 1X Ham's F-12 nutrient mix, without supplementation (Invitrogen, Waltham, MA, cat. 11765054), 100 U/mL penicillin-streptomycin (Invitrogen, cat. 15140122), and 2.5% Matrigel (Corning Inc., Corning, NY, cat. 354248) for the first three passages. The 354836-022-R-J1-PDC, 475296-252-R-J1-PDC, and 997726-040-R-J2-PDC lines were cultured in 6A media, which includes advanced DMEM/F-12 (Thermo Fisher Scientific, cat. 12634028), 10 mM HEPES (Thermo Fisher Scientific, cat. 15630080), 1X GlutaMAX supplement (Thermo Fisher Scientific, cat. 35050061), 0.1 mg/mL primocin (InvivoGen, San Diego, CA, cat. ant-pm-2), 10% defined fetal bovine serum, heat inactivated (HyClone Laboratories Inc., Logan, UT, cat. SH30070.03HI), 50% L-WRN conditioned media (ATCC, cat. CRL-3276), 1.25 mM N-Acetyl-L-cysteine (Sigma-Aldrich, cat. A9165), 10 mM nicotinamide (Sigma-Aldrich, cat. N0636), 1X B-27 supplement (Thermo Fisher Scientific, cat. 17504044), 1X N-2 supplement (Thermo Fisher Scientific, cat. 17502048), and 10 microM Y-27632 dihydrochloride (Tocris Bioscience, Bristol, United Kingdom, cat. 1254). The 624824-186-R-J2-PDC line was cultured in 6C/Colon 1B media, which includes all 6A media components plus 50 ng/mL human EGF recombinant protein (Thermo Fisher Scientific, cat. PHG0311). […]

For `CC(Cn1ccc(-c2ccc(C#N)c(Cl)c2)n1)NC(=O)c1cc(C(C)O)[nH]n1` (centres undefined) + COc1c(OCCCN2CCOCC2)ccc2c3n(c(=NC(=O)c4cnc(N)nc4)nc12)CCN3, the IC50 (second compound 0.00316 µM) was > 10 µM, the IC50 (second compound 0.01 µM) was > 10 µM and the IC50 (second compound 0.0316 µM) was 8.44 µM. The IC50 (second compound 0.1 µM) was < 0.0316 µM, the IC50 (second compound 0.316 µM) was < 0.0316 µM and the IC50 (second compound 1 µM) was < 0.0316 µM. For the same molecule, the viability, T/C (second compound 0.00316 µM, first compound 0.0316 µM) was 89%, the viability, T/C (second compound 0.00316 µM, first compound 0.1 µM) was 96% and the viability, T/C (second compound 0.00316 µM, first compound 0.316 µM) was 96.1%. It also gave a viability, T/C (second compound 0.00316 µM, first compound 1 µM) of 88%, a viability, T/C (second compound 0.00316 µM, first compound 3.16 µM) of 104% and a viability, T/C (second compound 0.00316 µM, first compound 10 µM) of 75.3%. For the same molecule, the viability, T/C (second compound 0.01 µM, first compound 0.0316 µM) was 103%, the viability, T/C (second compound 0.01 µM, first compound 0.1 µM) was 83.3% and the viability, T/C (second compound 0.01 µM, first compound 0.316 µM) was 101%. For the same molecule, the viability, T/C (second compound 0.01 µM, first compound 1 µM) was 93.5%, the viability, T/C (second compound 0.01 µM, first compound 3.16 µM) was 95.4% and the viability, T/C (second compound 0.01 µM, first compound 10 µM) was 59.5%. For the same molecule, the viability, T/C (second compound 0.0316 µM, first compound 0.0316 µM) was 69.2%, the viability, T/C (second compound 0.0316 µM, first compound 0.1 µM) was 77.4% and the viability, T/C (second compound 0.0316 µM, first compound 0.316 µM) was 74.7%. The viability, T/C (second compound 0.0316 µM, first compound 1 µM) was 82.1%, the viability, T/C (second compound 0.0316 µM, first compound 3.16 µM) was 79% and the viability, T/C (second compound 0.0316 µM, first compound 10 µM) was 45.7%. For the same molecule, the viability, T/C (second compound 0.1 µM, first compound 0.0316 µM) was 38.9%, the viability, T/C (second compound 0.1 µM, first compound 0.1 µM) was 39.2% and the viability, T/C (second compound 0.1 µM, first compound 0.316 µM) was 41.5%. The viability, T/C (second compound 0.1 µM, first compound 1 µM) was 45.7%, the viability, T/C (second compound 0.1 µM, first compound 3.16 µM) was 40.7% and the viability, T/C (second compound 0.1 µM, first compound 10 µM) was 33.9%. It also gave a viability, T/C (second compound 0.316 µM, first compound 0.0316 µM) of 14.8%, a viability, T/C (second compound 0.316 µM, first compound 0.1 µM) of 15.9% and a viability, T/C (second compound 0.316 µM, first compound 0.316 µM) of 15.3%. For the same molecule, the viability, T/C (second compound 0.316 µM, first compound 1 µM) was 14.4%, the viability, T/C (second compound 0.316 µM, first compound 3.16 µM) was 18.7% and the viability, T/C (second compound 0.316 µM, first compound 10 µM) was 20.4%. The viability, T/C (second compound 1 µM, first compound 0.0316 µM) was 8.77%, the viability, T/C (second compound 1 µM, first compound 0.1 µM) was 8.22% and the viability, T/C (second compound 1 µM, first compound 0.316 µM) was 7.63%. For the same molecule, the viability, T/C (second compound 1 µM, first compound 1 µM) was 5.85%, the viability, T/C (second compound 1 µM, first compound 3.16 µM) was 7.24% and the viability, T/C (second compound 1 µM, first compound 10 µM) was 3.67%.

`Cn1cnc2c(F)c(Nc3ccc(Br)cc3Cl)c(C(=O)NOCCO)cc21` + CC(Nc1ccc2c(c1)OCCn1cc(N3C(=O)OCC3C(F)F)nc1-2)C(N)=O was tested, and the IC50 (second compound 0.00316 µM) was > 3 µM, the IC50 (second compound 0.01 µM) was > 3 µM and the IC50 (second compound 0.0316 µM) was > 3 µM. The IC50 (second compound 0.1 µM) was > 3 µM, the IC50 (second compound 0.316 µM) was > 3 µM and the IC50 (second compound 1 µM) was 0.294 µM. For the same molecule, the viability, T/C (second compound 0.00316 µM, first compound 0.00949 µM) was 105%, the viability, T/C (second compound 0.00316 µM, first compound 0.03 µM) was 84.7% and the viability, T/C (second compound 0.00316 µM, first compound 0.0949 µM) was 99.8%. For the same molecule, the viability, T/C (second compound 0.00316 µM, first compound 0.3 µM) was 91.8%, the viability, T/C (second compound 0.00316 µM, first compound 0.949 µM) was 86.1% and the viability, T/C (second compound 0.00316 µM, first compound 3 µM) was 79.2%. The viability, T/C (second compound 0.01 µM, first compound 0.00949 µM) was 97.5%, the viability, T/C (second compound 0.01 µM, first compound 0.03 µM) was 80.4% and the viability, T/C (second compound 0.01 µM, first compound 0.0949 µM) was 96.1%. The viability, T/C (second compound 0.01 µM, first compound 0.3 µM) was 98.8%, the viability, T/C (second compound 0.01 µM, first compound 0.949 µM) was 82.3% and the viability, T/C (second compound 0.01 µM, first compound 3 µM) was 88.5%. It also gave a viability, T/C (second compound 0.0316 µM, first compound 0.00949 µM) of 95.5%, a viability, T/C (second compound 0.0316 µM, first compound 0.03 µM) of 80.5% and a viability, T/C (second compound 0.0316 µM, first compound 0.0949 µM) of 101%. The viability, T/C (second compound 0.0316 µM, first compound 0.3 µM) was 96.6%, the viability, T/C (second compound 0.0316 µM, first compound 0.949 µM) was 97.8% and the viability, T/C (second compound 0.0316 µM, first compound 3 µM) was 86.4%. The viability, T/C (second compound 0.1 µM, first compound 0.00949 µM) was 85.6%, the viability, T/C (second compound 0.1 µM, first compound 0.03 µM) was 86.1% and the viability, T/C (second compound 0.1 µM, first compound 0.0949 µM) was 83.5%. For the same molecule, the viability, T/C (second compound 0.1 µM, first compound 0.3 µM) was 90.2%, the viability, T/C (second compound 0.1 µM, first compound 0.949 µM) was 86.5% and the viability, T/C (second compound 0.1 µM, first compound 3 µM) was 83.8%. For the same molecule, the viability, T/C (second compound 0.316 µM, first compound 0.00949 µM) was 71.3%, the viability, T/C (second compound 0.316 µM, first compound 0.03 µM) was 75.3% and the viability, T/C (second compound 0.316 µM, first compound 0.0949 µM) was 70.3%. For the same molecule, the viability, T/C (second compound 0.316 µM, first compound 0.3 µM) was 66.5%, the viability, T/C (second compound 0.316 µM, first compound 0.949 µM) was 71.8% and the viability, T/C (second compound 0.316 µM, first compound 3 µM) was 61.1%. It also gave a viability, T/C (second compound 1 µM, first compound 0.00949 µM) of 54%, a viability, T/C (second compound 1 µM, first compound 0.03 µM) of 56.8% and a viability, T/C (second compound 1 µM, first compound 0.0949 µM) of 59.2%. For the same molecule, the viability, T/C (second compound 1 µM, first compound 0.3 µM) was 49.7%, the viability, T/C (second compound 1 µM, first compound 0.949 µM) was 47.8% and the viability, T/C (second compound 1 µM, first compound 3 µM) was 52.2%.
